This note sets out measurements from patent US11254668B2, “Pyrazolo[1,5-A]pyrazin-4-yl and related derivatives” (Pfizer Inc., priority 2017, dated 2022).

Type in all cases: biochemical
One assay concerns the target JAK2 (Homo sapiens (Human), UniProt O60674). The experiment in a line: JAK Caliper Enzyme Assay at 1 mM ATP, JAK2. The protocol:
Compounds of the invention were evaluated by in vitro methods to determine their respective ability to inhibit the JAK kinases (TYK2, JAK1, JAK2, JAK3).
The human JAK inhibitory activity was determined by using a microfluidic assay to monitor phosphorylation of a synthetic peptide by the recombinant human kinase domain of each of the four members of the JAK family, JAK1, JAK2, JAK3 and TYK2. […] Each assay condition was optimized for enzyme concentration and room temperature incubation time to obtain a conversion rate of 20% to 30% phosphorylated peptide product. Reactions were terminated by the addition of stop buffer containing EDTA. Utilizing the LabChip 3000 mobility shift technology (Caliper Life Science), each assay reaction was sampled to determine the level of phosphorylation. This technology is separation-based, allowing direct detection of fluorescently labeled substrates and products. Separations are controlled by a combination of vacuum pressure and electric field strength optimized for each peptide substrate.
JAK Caliper Enzyme Assay at 1mM ATP
Compounds were added to a 384-well plate.
The data was collected using the HTS Well Analyzer software from Caliper Life Sciences. The data output for data analysis is the percent product converted calculated on peak height (Equation 1). % product converted=100*((product)/(product+substrate)) Equation 1: […]
The percent effect at each compound concentration was calculated based on the positive and negative control well contained within each assay plate (Equation 2). […] The negative control wells contained DMSO alone (at the same concentration as the compound wells) that was used to set the baseline activity in the assay (i.e., uninhibited JAK1, JAK2, JAK3 or TYK2). % effect=100*([…](positive control-negative control)) Equation 2: […]
The percent effect was plotted against the compound concentration compound.

In the next assay the target is JAK3 (Homo sapiens (Human), UniProt P52333). The experiment in a line: JAK Caliper Enzyme Assay at 1 mM ATP, JAK3. Put shortly: (§1)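 Recombinant human kinase domains phosphorylated a fluorescent synthetic peptide at room temperature, with enzyme level and time tuned to 20% to 30% conversion; EDTA stop buffer ended reactions. Mobility-shift separation gave percent product from peak heights, normalised to DMSO and positive controls, and IC50s came from concentration–effect curves.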
Sequence of JAK3 (P52333 822-1111): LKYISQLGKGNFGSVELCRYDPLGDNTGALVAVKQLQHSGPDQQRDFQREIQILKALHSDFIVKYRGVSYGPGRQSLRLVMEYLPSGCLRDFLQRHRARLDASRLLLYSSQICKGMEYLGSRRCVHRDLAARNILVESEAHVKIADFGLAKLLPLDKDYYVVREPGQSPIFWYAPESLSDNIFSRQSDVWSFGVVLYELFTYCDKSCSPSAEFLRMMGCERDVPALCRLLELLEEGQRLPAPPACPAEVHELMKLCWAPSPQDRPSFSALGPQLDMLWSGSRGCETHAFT

The target in a further assay is TYK2 (Homo sapiens (Human), UniProt P29597). Description: JAK Caliper Enzyme Assay at 1 mM ATP, TYK2. Put shortly:
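Recombinant human kinase domains phosphorylate a fluorescent synthetic peptide at 1 mM ATP and room temperature, with enzyme level and time tuned to 20–30% conversion before an EDTA stop. Microfluidic mobility-shift separation gives percent product from peak heights. Percent effect against plate controls (DMSO baseline) is plotted versus compound concentration.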

Another assay deals with JAK1 (Homo sapiens (Human), UniProt P23458). The experiment in a line: JAK Caliper Enzyme Assay at 1 mM ATP, JAK1. Put shortly: as §1
Sequence of JAK1 (P23458 875-1153): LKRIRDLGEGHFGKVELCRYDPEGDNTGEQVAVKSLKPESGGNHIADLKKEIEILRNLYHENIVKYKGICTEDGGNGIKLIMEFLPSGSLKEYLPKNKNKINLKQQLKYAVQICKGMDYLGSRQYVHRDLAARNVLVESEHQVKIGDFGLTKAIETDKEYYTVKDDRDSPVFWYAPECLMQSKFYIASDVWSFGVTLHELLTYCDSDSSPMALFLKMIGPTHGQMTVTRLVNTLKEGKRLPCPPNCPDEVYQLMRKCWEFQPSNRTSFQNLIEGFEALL

Sequence of TYK2 (P29597 897-1176): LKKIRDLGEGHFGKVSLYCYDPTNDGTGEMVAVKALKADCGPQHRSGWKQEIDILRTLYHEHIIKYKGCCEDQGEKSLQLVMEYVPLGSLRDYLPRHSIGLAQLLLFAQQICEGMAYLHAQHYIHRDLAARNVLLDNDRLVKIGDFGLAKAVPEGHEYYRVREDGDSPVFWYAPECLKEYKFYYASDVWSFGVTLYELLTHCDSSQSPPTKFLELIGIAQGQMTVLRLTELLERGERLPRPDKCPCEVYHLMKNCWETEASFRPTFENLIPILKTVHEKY
Sequence of JAK2 (O60674 849-1124): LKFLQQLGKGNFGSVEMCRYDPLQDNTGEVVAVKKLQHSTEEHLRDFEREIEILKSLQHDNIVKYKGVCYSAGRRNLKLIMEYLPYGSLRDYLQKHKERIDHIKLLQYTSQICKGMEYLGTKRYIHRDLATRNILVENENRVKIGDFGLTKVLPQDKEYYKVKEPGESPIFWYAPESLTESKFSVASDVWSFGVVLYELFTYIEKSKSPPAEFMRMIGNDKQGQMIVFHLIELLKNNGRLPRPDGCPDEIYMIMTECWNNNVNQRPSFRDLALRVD

For `N#CCC1(n2ccc(-c3nc(-c4ccn[nH]4)cc4ncccc34)n2)CC(C#N)C1` (stereo not drawn) [Example 21, cis-3-(cyanomethyl)-3-{3-[7-(1H-pyrazol-5-yl)-1,6-naphthyridin-5-yl]-1H-pyrazol-1-yl}cyclobutanecarbonitrile], the concentration for half-maximal inhibition (IC50) (in general, the point on the concentration scale where inhibition reaches its midpoint) at JAK2 is 50 nM; at JAK3, 6750 nM; at TYK2 it was 9 nM; at JAK1 it was 71 nM.

Regarding `N#CC[C@H]1C[C@](CC#N)(n2ccc(-c3nc(-c4ccn[nH]4)cc4ncccc34)n2)C1` [Example 22, 2,2′-(trans-1-{3-[7-(1H-pyrazol-5-yl)-1,6-naphthyridin-5-yl]-1H-pyrazol-1-yl}cyclobutane-1,3-diyl)diacetonitrile], the half-maximal inhibitory concentration (IC50) at JAK2 was 891 nM; on JAK3, above 10000 nM; on TYK2, 61 nM; on JAK1, 834 nM.

Regarding `N#CCC1CC(CC#N)(n2ccc(-c3nc(-c4ccn[nH]4)cc4ncccc34)n2)C1` (stereo not drawn) [Example 23, 2,2′-(cis-1-{3-[7-(1H-pyrazol-5-yl)-1,6-naphthyridin-5-yl]-1H-pyrazol-1-yl}cyclobutane-1,3-diyl)diacetonitrile], the IC50 at JAK2 was 216 nM; on JAK3, above 10000 nM; on TYK2 it was 15 nM; at JAK1 it was 324 nM.

For `N#CC[C@]1(n2ccc(-c3nc(-c4cc[nH]n4)cc4ncccc34)n2)C[C@@H](C(N)=O)C1` [Example 24, cis-3-(cyanomethyl)-3-{3-[7-(1H-pyrazol-3-yl)-1,6-naphthyridin-5-yl]-1H-pyrazol-1-yl}cyclobutanecarboxamide], the 50% inhibitory concentration (IC50) at JAK2 was 1690 nM; at JAK3 it was above 10000 nM; on TYK2 it was 167 nM; on JAK1, 3670 nM.

Consider `N#CCC1(n2ccc(-c3nc(-c4ccn[nH]4)cc4ncccc34)n2)CC(C(N)=O)C1` (stereo not drawn) [Example 25, trans-3-(cyanomethyl)-3-{3-[7-(1H-pyrazol-5-yl)-1,6-naphthyridin-5-yl]-1H-pyrazol-1-yl}cyclobutanecarboxamide], for which the IC50 at JAK2 is 8680 nM; on JAK3, above 10000 nM; on TYK2, 1640 nM; on JAK1, above 10000 nM.

`CNC(=O)C1CC(CC#N)(n2ccc(-c3nc(-c4cc[nH]n4)cc4ncccc34)n2)C1` (stereo not drawn) [Example 26, cis-3-(cyanomethyl)-N-methyl-3-{3-[7-(1H-pyrazol-3-yl)-1,6-naphthyridin-5-yl]-1H-pyrazol-1-yl}cyclobutanecarboxamide]: the IC50 on JAK2 was 3900 nM; at JAK3, above 10000 nM; on TYK2, 1470 nM; on JAK1 it was 6070 nM.

In the case of `CNC(=O)[C@H]1C[C@](CC#N)(n2ccc(-c3nc(-c4ccn[nH]4)cc4ncccc34)n2)C1` [Example 27, trans-3-(cyanomethyl)-N-methyl-3-{3-[7-(1H-pyrazol-5-yl)-1,6-naphthyridin-5-yl]-1H-pyrazol-1-yl}cyclobutanecarboxamide], the IC50 is above 10000 nM at JAK2, above 10000 nM on JAK3, 7560 nM at TYK2 and above 10000 nM at JAK1.

Take `N#CCC1(n2ccc(-c3nc(-c4ccn[nH]4)cc4ncccc34)n2)CC(CO)C1` (stereo not drawn) [Example 28, [trans-3-(hydroxymethyl)-1-{3-[7-(1H-pyrazol-5-yl)-1,6-naphthyridin-5-yl]-pyrazol-1-yl}cyclobutyl]acetonitrile]: the IC50 is 1790 nM at JAK2, above 10000 nM on JAK3, 207 nM at TYK2 and 2570 nM on JAK1.

For the compound `N#CCC1(n2ccc(-c3nc(-c4ccn[nH]4)cc4ncccc34)n2)CC(CO)C1` (stereo not drawn) [Example 29, [cis-3-(hydroxymethyl)-1-{3-[7-(1H-pyrazol-5-yl)-1,6-naphthyridin-5-yl]-1H-pyrazol-1-yl}cyclobutyl]acetonitrile], the IC50 on JAK2 was 2340 nM; on JAK3, above 10000 nM; on TYK2, 437 nM; at JAK1, 3800 nM.

As for `CO[C@H]1C[C@](CC#N)(n2ccc(-c3nc(-c4ccn[nH]4)cc4ncccc34)n2)C1` [Example 30, (trans-3-methoxy-1-{3-[7-(1H-pyrazol-5-yl)-1,6-naphthyridin-5-yl]-1H-pyrazol-1-yl}cyclobutyl)acetonitrile], the IC50 at JAK2 is 1770 nM; at JAK3 it was above 10000 nM; on TYK2, 75 nM; at JAK1, 1960 nM.

Take `CO[C@H]1C[C@@](CC#N)(n2ccc(-c3nc(-c4ccn[nH]4)cc4ncccc34)n2)C1` [Example 31, (cis-3-methoxy-1-{3-[7-(1H-pyrazol-5-yl)-1,6-naphthyridin-5-yl]-1H-pyrazol-1-yl}cyclobutyl)acetonitrile]: the IC50 at JAK2 was 955 nM; at JAK3, above 10000 nM; at TYK2, 53 nM; at JAK1 it was 1800 nM.

For `CC(=O)NC1CC(CC#N)(n2ccc(-c3nc(-c4cc[nH]n4)cc4ncccc34)n2)C1` (stereo not drawn) [Example 32, N-[trans-3-(cyanomethyl)-3-{3-[7-(1H-pyrazol-3-yl)-1,6-naphthyridin-5-yl]-pyrazol-1-yl}cyclobutyl]acetamide], the IC50 on JAK2 is 3430 nM; on JAK3, above 10000 nM; at TYK2, 730 nM; at JAK1, 5830 nM.

Turning to `C[C@]1(C#N)C[C@@](CC#N)(n2ccc(-c3nc(-c4cc[nH]n4)cc4ncccc34)n2)C1` [Example 35, cis-3-(cyanomethyl)-1-methyl-3-{3-[7-(1H-pyrazol-3-yl)-1,6-naphthyridin-5-yl]-1H-pyrazol-1-yl}cyclobutanecarbonitrile], the IC50 on JAK2 is 339 nM; at JAK3, above 10000 nM; on TYK2, 44 nM; at JAK1 it was 569 nM.

On to `C[C@]1(C#N)C[C@](CC#N)(n2ccc(-c3nc(-c4cc[nH]n4)cc4ncccc34)n2)C1` [Example 36, trans-3-(cyanomethyl)-1-methyl-3-{3-[7-(1H-pyrazol-3-yl)-1,6-naphthyridin-5-yl]-1H-pyrazol-1-yl}cyclobutanecarbonitrile], for which the IC50 on JAK2 was 5740 nM; at JAK3, above 10000 nM; at TYK2 it was 1060 nM; at JAK1, 7100 nM.

Consider `N#CCC1(n2ccc(-c3nc(-c4cc[nH]n4)cc4ncccc34)n2)CC2(COC2)C1` [Example 37, (6-{3-[7-(1H-pyrazol-3-yl)-1,6-naphthyridin-5-yl]-1H-pyrazol-1-yl}-2-oxaspiro[3.3]hept-6-yl)acetonitrile], for which the half-maximal inhibitory concentration (IC50) at JAK2 was 2830 nM; at JAK3, above 10000 nM; on TYK2, 369 nM; on JAK1, 4280 nM.

Consider `CC(=O)N1CC2(C1)CC(CC#N)(n1ccc(-c3nc(-c4cc[nH]n4)cc4ncccc34)n1)C2` [Example 38, (2-acetyl-6-{3-[7-(1H-pyrazol-3-yl)-1,6-naphthyridin-5-yl]-1H-pyrazol-1-yl}-2-azaspiro[3.3]hept-6-yl)acetonitrile], for which the IC50 on JAK2 was 5630 nM; at JAK3, above 10000 nM; on TYK2, 4020 nM; on JAK1, above 10000 nM.

With `CC(C)(O)[C@H]1C[C@](CC#N)(n2ccc(-c3nc(-c4cc[nH]n4)cc4ncccc34)n2)C1` [Example 39, [trans-3-(2-hydroxypropan-2-yl)-1-{3-[7-(1H-pyrazol-3-yl)-1,6-naphthyridin-5-yl]-1H-pyrazol-1-yl}cyclobutyl]acetonitrile], the IC50 on JAK2 is 2080 nM; on JAK3 it was above 10000 nM; on TYK2, 205 nM; at JAK1, 2770 nM.

`CC(C)(O)[C@H]1C[C@@](CC#N)(n2ccc(-c3nc(-c4cc[nH]n4)cc4ncccc34)n2)C1` [Example 40, [cis-3-(2-hydroxpropan-2-yl)-1-{3-[7-(1H-pyrazol-3-yl)-1,6-naphthyridin-5-yl]-1H-pyrazol-1-yl}cyclobutyl]acetonitrile]: the IC50 is 4590 nM on JAK2, above 10000 nM on JAK3, 730 nM at TYK2 and 7300 nM on JAK1.

Turning to `Cc1cc(-c2cc3ncccc3c(-c3ccn([C@]4(CC#N)C[C@@H](C#N)C4)n3)n2)n[nH]1` [Example 43, trans-3-(cyanomethyl)-3-{3-[7-(5-methyl-1H-pyrazol-3-yl)-1,6-naphthyridin-5-yl]-1H-pyrazol-1-yl}cyclobutanecarbonitrile], the IC50 was 91 nM at JAK2, above 10000 nM on JAK3, 14 nM at TYK2 and 502 nM on JAK1.
